Source: the supplement of paper PMC4862054
Values joined by “and” are separate entries in the source; they are usually repeats but may differ in a detail not shown here. Identical values can stand only once.

tested on: HCC1143; experiment: normalised viability (% of control), CellTiter-Blue; higher = more viable cells (about 100 = DMSO control); conditions: 10000 nM; incubation time: 72 h
Summary of the method: (§1)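 Vehicle (100) and a positive kill control (0) anchored the normalisation of each plate, and Z'-factor was used for quality control. Breast cancer cell lines in 20 µl suspension were incubated 72 h over compound in 5 µl medium in 384-well plates, followed by CellTiter-Blue at 560/590 nm. The value is normalised viability at a single listed concentration of the series.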

Q: With `Cc1cn(-c2cc(NC(=O)c3ccc(C)c(Nc4nccc(-c5cccnc5)n4)c3)cc(C(F)(F)F)c2)cn1` [Nilotinib] as the compound, how does the normalised viability read?
A: 65% and 65.2%

Q: How did the normalised viability turn out when `C=CCN(/C=C1/C(=O)O[C@H](COC)[C@@]2(C)C1=C(O)C(=O)C1=C2[C@H](OC(C)=O)C[C@]2(C)C(=O)CC[C@@H]12)CC=C` [PX-866] was run?
A: 60.8%

Q: How did the normalised viability turn out when `CC[C@H](CO)Nc1nc(NCc2ccccc2)c2ncn(C(C)C)c2n1` [Roscovitine] was run?
A: 74.7%

tested on: DU-4475; experiment: as above; conditions: 0.3 nM; incubation time: 72 h
Summary of the method: as §1

Q: How did the normalised viability turn out when `CCNC(=O)c1noc(-c2cc(C(C)C)c(O)cc2O)c1-c1ccc(CN2CCOCC2)cc1` [NVP-AUY922] was run?
A: 114%

same assay, conditions: 3 nM; incubation time: 72 h

Q: For `COc1c2occc2cc2ccc(=O)oc12` [Methoxsalen], which normalised viability is on record?
A: 95.6%

Q: With `CO[C@@H]1[C@H](N(C)C(=O)c2ccccc2)C[C@H]2O[C@]1(C)n1c3ccccc3c3c4c(c5c6ccccc6n2c5c31)C(=O)NC4` [Midostaurin] as the compound, how does the normalised viability read?
A: 94.7%

Q: `CO[C@@]12[C@H](COC(N)=O)C3=C(C(=O)C(C)=C(N)C3=O)N1C[C@@H]1N[C@@H]12` [Mitomycin C] was tested. Which normalised viability did it give?
A: 105%

Q: `CCNC(=O)c1noc(-c2cc(C(C)C)c(O)cc2O)c1-c1ccc(CN2CCOCC2)cc1` [NVP-AUY922] was tested. Which normalised viability did it give?
A: 109%

Q: With `CC1(C)CCC(c2ccc(Cl)cc2)=C(CN2CCN(c3ccc(C(=O)NS(=O)(=O)c4ccc(N[C@H](CCN5CCOCC5)CSc5ccccc5)c(S(=O)(=O)C(F)(F)F)c4)cc3)CC2)C1` [Navitoclax] as the compound, how does the normalised viability read?
A: 88.7%

Q: For `Cc1cn(-c2cc(NC(=O)c3ccc(C)c(Nc4nccc(-c5cccnc5)n4)c3)cc(C(F)(F)F)c2)cn1` [Nilotinib], which normalised viability is on record?
A: 105% and 98.1%

Q: Which normalised viability does the source give for `C=CCN(/C=C1/C(=O)O[C@H](COC)[C@@]2(C)C1=C(O)C(=O)C1=C2[C@H](OC(C)=O)C[C@]2(C)C(=O)CC[C@@H]12)CC=C` [PX-866] here?
A: 109%

Q: Which normalised viability does the source give for `CC[C@H](CO)Nc1nc(NCc2ccccc2)c2ncn(C(C)C)c2n1` [Roscovitine] here?
A: 99.9%

same assay, conditions: 10 nM; incubation time: 72 h

Q: Which normalised viability does the source give for `CCNC(=O)c1noc(-c2cc(C(C)C)c(O)cc2O)c1-c1ccc(CN2CCOCC2)cc1` [NVP-AUY922] here?
A: 87.6%

same assay, conditions: 30 nM; incubation time: 72 h

Q: For `COc1c2occc2cc2ccc(=O)oc12` [Methoxsalen], which normalised viability is on record?
A: 111%

Q: Which normalised viability does the source give for `CO[C@@H]1[C@H](N(C)C(=O)c2ccccc2)C[C@H]2O[C@]1(C)n1c3ccccc3c3c4c(c5c6ccccc6n2c5c31)C(=O)NC4` [Midostaurin] here?
A: 92.4%

Q: For `CO[C@@]12[C@H](COC(N)=O)C3=C(C(=O)C(C)=C(N)C3=O)N1C[C@@H]1N[C@@H]12` [Mitomycin C], which normalised viability is on record?
A: 83.6%

Q: Which normalised viability does the source give for `CC1(C)CCC(c2ccc(Cl)cc2)=C(CN2CCN(c3ccc(C(=O)NS(=O)(=O)c4ccc(N[C@H](CCN5CCOCC5)CSc5ccccc5)c(S(=O)(=O)C(F)(F)F)c4)cc3)CC2)C1` [Navitoclax] here?
A: 72.9%

Q: With `Cc1cn(-c2cc(NC(=O)c3ccc(C)c(Nc4nccc(-c5cccnc5)n4)c3)cc(C(F)(F)F)c2)cn1` [Nilotinib] as the compound, how does the normalised viability read?
A: 96.6% and 119%

Q: Which normalised viability does the source give for `C=CCN(/C=C1/C(=O)O[C@H](COC)[C@@]2(C)C1=C(O)C(=O)C1=C2[C@H](OC(C)=O)C[C@]2(C)C(=O)CC[C@@H]12)CC=C` [PX-866] here?
A: 96.1%

Q: With `CC[C@H](CO)Nc1nc(NCc2ccccc2)c2ncn(C(C)C)c2n1` [Roscovitine] as the compound, how does the normalised viability read?
A: 101%

same assay, conditions: 100 nM; incubation time: 72 h

Q: `COc1c2occc2cc2ccc(=O)oc12` [Methoxsalen] was tested. Which normalised viability did it give?
A: 111%

Q: `CO[C@@H]1[C@H](N(C)C(=O)c2ccccc2)C[C@H]2O[C@]1(C)n1c3ccccc3c3c4c(c5c6ccccc6n2c5c31)C(=O)NC4` [Midostaurin] was tested. Which normalised viability did it give?
A: 101%

Q: For `CO[C@@]12[C@H](COC(N)=O)C3=C(C(=O)C(C)=C(N)C3=O)N1C[C@@H]1N[C@@H]12` [Mitomycin C], which normalised viability is on record?
A: 91%

Q: How did the normalised viability turn out when `CC1(C)CCC(c2ccc(Cl)cc2)=C(CN2CCN(c3ccc(C(=O)NS(=O)(=O)c4ccc(N[C@H](CCN5CCOCC5)CSc5ccccc5)c(S(=O)(=O)C(F)(F)F)c4)cc3)CC2)C1` [Navitoclax] was run?
A: 70.3%

Q: For `Cc1cn(-c2cc(NC(=O)c3ccc(C)c(Nc4nccc(-c5cccnc5)n4)c3)cc(C(F)(F)F)c2)cn1` [Nilotinib], which normalised viability is on record?
A: 97.6% and 99.3%

Q: With `C=CCN(/C=C1/C(=O)O[C@H](COC)[C@@]2(C)C1=C(O)C(=O)C1=C2[C@H](OC(C)=O)C[C@]2(C)C(=O)CC[C@@H]12)CC=C` [PX-866] as the compound, how does the normalised viability read?
A: 92.7%

Q: `CC[C@H](CO)Nc1nc(NCc2ccccc2)c2ncn(C(C)C)c2n1` [Roscovitine] was tested. Which normalised viability did it give?
A: 89.7%

tested on: MDA-MB-436; experiment: as above; conditions: 1 nM; incubation time: 72 h
Summary of the method: as §1

Q: For `CCNC(=O)c1noc(-c2cc(C(C)C)c(O)cc2O)c1-c1ccc(CN2CCOCC2)cc1` [NVP-AUY922], which normalised viability is on record?
A: 111%

same assay, conditions: 10 nM; incubation time: 72 h

Q: How did the normalised viability turn out when `COc1c2occc2cc2ccc(=O)oc12` [Methoxsalen] was run?
A: 90.6%

Q: `CO[C@@H]1[C@H](N(C)C(=O)c2ccccc2)C[C@H]2O[C@]1(C)n1c3ccccc3c3c4c(c5c6ccccc6n2c5c31)C(=O)NC4` [Midostaurin] was tested. Which normalised viability did it give?
A: 94.2%

Q: With `CO[C@@]12[C@H](COC(N)=O)C3=C(C(=O)C(C)=C(N)C3=O)N1C[C@@H]1N[C@@H]12` [Mitomycin C] as the compound, how does the normalised viability read?
A: 100%

Q: For `CC1(C)CCC(c2ccc(Cl)cc2)=C(CN2CCN(c3ccc(C(=O)NS(=O)(=O)c4ccc(N[C@H](CCN5CCOCC5)CSc5ccccc5)c(S(=O)(=O)C(F)(F)F)c4)cc3)CC2)C1` [Navitoclax], which normalised viability is on record?
A: 76.2%

Q: With `Cc1cn(-c2cc(NC(=O)c3ccc(C)c(Nc4nccc(-c5cccnc5)n4)c3)cc(C(F)(F)F)c2)cn1` [Nilotinib] as the compound, how does the normalised viability read?
A: 98.2% and 88.3%

Q: Which normalised viability does the source give for `C=CCN(/C=C1/C(=O)O[C@H](COC)[C@@]2(C)C1=C(O)C(=O)C1=C2[C@H](OC(C)=O)C[C@]2(C)C(=O)CC[C@@H]12)CC=C` [PX-866] here?
A: 93.3%

Q: For `CC[C@H](CO)Nc1nc(NCc2ccccc2)c2ncn(C(C)C)c2n1` [Roscovitine], which normalised viability is on record?
A: 107%

same assay, conditions: 100 nM; incubation time: 72 h

Q: Which normalised viability does the source give for `CCNC(=O)c1noc(-c2cc(C(C)C)c(O)cc2O)c1-c1ccc(CN2CCOCC2)cc1` [NVP-AUY922] here?
A: 11.2%

same assay, conditions: 1000 nM; incubation time: 72 h

Q: With `COc1c2occc2cc2ccc(=O)oc12` [Methoxsalen] as the compound, how does the normalised viability read?
A: 87.1%

Q: With `CO[C@@H]1[C@H](N(C)C(=O)c2ccccc2)C[C@H]2O[C@]1(C)n1c3ccccc3c3c4c(c5c6ccccc6n2c5c31)C(=O)NC4` [Midostaurin] as the compound, how does the normalised viability read?
A: 62.7%

Q: With `CO[C@@]12[C@H](COC(N)=O)C3=C(C(=O)C(C)=C(N)C3=O)N1C[C@@H]1N[C@@H]12` [Mitomycin C] as the compound, how does the normalised viability read?
A: 76.2%

Q: How did the normalised viability turn out when `CCNC(=O)c1noc(-c2cc(C(C)C)c(O)cc2O)c1-c1ccc(CN2CCOCC2)cc1` [NVP-AUY922] was run?
A: 19.9%

Q: With `CC1(C)CCC(c2ccc(Cl)cc2)=C(CN2CCN(c3ccc(C(=O)NS(=O)(=O)c4ccc(N[C@H](CCN5CCOCC5)CSc5ccccc5)c(S(=O)(=O)C(F)(F)F)c4)cc3)CC2)C1` [Navitoclax] as the compound, how does the normalised viability read?
A: 98.7%
